# ChEMBL document CHEMBL5465560, “Selectivity Literature for EUbOPEN Chemogenomic Library” (2024)
# Assays:
# [1] = target: Angiopoietin-1 receptor (Homo sapiens) (UniProt Q02763); assay: Selectivity interaction (KinomeScan (DiscoverX)) EUB0000655a TEK; conditions: at 10 µM
# [2] = target: T1, cAMP-dependent protein kinase catalytic subunit PRKX (Homo sapiens) (UniProt P51817); assay: Selectivity interaction (KinomeScan (DiscoverX)) EUB0001079a PRKX; conditions: at 1 µM
# T1 sequence (whole entry): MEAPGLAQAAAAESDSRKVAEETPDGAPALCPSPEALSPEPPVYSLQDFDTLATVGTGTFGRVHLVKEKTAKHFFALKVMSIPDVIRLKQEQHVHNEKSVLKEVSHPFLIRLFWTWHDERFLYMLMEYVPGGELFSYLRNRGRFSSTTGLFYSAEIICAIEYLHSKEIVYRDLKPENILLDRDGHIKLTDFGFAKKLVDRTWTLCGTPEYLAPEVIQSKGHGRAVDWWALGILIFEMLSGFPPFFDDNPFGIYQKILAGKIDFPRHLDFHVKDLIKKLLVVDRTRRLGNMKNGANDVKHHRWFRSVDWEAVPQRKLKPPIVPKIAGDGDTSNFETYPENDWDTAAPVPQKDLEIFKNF
# [3] = target: Mitogen-activated protein kinase 3 (Homo sapiens, UniProt P27361); conditions: at 10 µM
# [4] = target: Cyclin-dependent kinase 5/CDK5 activator 1 (Homo sapiens, UniProt Q00535)
# [5] = target: Protein kinase C alpha type (Homo sapiens, UniProt P17252); assay: Selectivity interaction (SelectScreen profiling (Invitrogen)) EUB0000607a PRKCA; conditions: at 2 µM
# [6] = target: Tyrosine-protein kinase Srms (Homo sapiens) (UniProt Q9H3Y6); assay: Selectivity interaction (KinomeScan (DiscoverX)) EUB0000607a SRMS; conditions: at 10 µM
# [7] = test system: Proto-oncogene tyrosine-protein kinase receptor Ret (Homo sapiens), P07949 [V804L]; assay: (§1) Selectivity interaction (KinomeScan (DiscoverX)) EUB0001049a RET; conditions: at 1 µM
# [8] = test system: Proto-oncogene tyrosine-protein kinase receptor Ret (Homo sapiens), P07949 [V804M]; assay: as §1; conditions: at 1 µM
# [9] = target: Proto-oncogene tyrosine-protein kinase receptor Ret (Homo sapiens, UniProt P07949); assay: as §1; conditions: at 1 µM
# [10] = test system: Proto-oncogene tyrosine-protein kinase receptor Ret (Homo sapiens), P07949 [M918T]; assay: as §1; conditions: at 1 µM
# [11] = target: T2, Phosphatidylinositol 3-kinase C2 domain-containing subunit gamma (Homo sapiens) (UniProt O75747); assay: Selectivity interaction (KinomeScan (DiscoverX)) EUB0000695a PIK3C2G; conditions: at 100 nM
# T2 sequence (whole entry): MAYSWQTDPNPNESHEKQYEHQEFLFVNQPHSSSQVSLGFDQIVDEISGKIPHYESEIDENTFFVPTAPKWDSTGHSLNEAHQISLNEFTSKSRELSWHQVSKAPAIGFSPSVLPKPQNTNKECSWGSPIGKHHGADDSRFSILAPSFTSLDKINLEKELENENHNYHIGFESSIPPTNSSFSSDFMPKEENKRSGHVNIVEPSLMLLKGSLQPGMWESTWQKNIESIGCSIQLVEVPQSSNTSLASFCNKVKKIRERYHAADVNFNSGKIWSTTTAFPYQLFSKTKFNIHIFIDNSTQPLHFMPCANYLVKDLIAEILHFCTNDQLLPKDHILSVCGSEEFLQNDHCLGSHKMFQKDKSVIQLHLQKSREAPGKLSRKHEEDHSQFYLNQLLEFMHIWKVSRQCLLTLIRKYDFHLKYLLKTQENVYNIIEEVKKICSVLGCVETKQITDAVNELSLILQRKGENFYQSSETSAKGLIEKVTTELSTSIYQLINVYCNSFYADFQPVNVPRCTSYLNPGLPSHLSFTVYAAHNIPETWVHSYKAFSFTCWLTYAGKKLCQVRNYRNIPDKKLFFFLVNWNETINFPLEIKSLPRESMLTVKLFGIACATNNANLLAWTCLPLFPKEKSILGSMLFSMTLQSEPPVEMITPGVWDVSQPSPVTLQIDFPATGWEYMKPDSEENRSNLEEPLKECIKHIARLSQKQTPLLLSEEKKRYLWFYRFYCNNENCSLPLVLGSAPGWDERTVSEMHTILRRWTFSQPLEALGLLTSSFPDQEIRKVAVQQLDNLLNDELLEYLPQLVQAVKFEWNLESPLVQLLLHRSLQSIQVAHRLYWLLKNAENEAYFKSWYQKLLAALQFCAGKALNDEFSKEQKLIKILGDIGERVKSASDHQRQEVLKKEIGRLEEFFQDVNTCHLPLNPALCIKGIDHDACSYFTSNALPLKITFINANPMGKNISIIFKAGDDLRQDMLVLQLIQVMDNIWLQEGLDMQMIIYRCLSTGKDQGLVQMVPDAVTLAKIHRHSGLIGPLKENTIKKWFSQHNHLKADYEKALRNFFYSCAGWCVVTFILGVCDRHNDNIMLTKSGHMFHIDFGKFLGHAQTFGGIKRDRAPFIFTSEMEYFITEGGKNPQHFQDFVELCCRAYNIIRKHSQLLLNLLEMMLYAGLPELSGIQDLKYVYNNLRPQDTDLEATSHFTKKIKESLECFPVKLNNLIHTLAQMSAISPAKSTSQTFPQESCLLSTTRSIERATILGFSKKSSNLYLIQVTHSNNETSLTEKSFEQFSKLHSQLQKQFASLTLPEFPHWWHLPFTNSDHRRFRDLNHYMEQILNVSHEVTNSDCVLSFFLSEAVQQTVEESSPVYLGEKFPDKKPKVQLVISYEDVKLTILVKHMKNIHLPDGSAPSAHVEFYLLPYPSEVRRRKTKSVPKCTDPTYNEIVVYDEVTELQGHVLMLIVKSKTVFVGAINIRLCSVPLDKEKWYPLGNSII
# [12] = target: T2, Phosphatidylinositol 3-kinase C2 domain-containing subunit gamma (Homo sapiens); assay: Selectivity interaction (KinomeScan (DiscoverX)) EUB0000045b PIK3C2G
# [13] = target: Tyrosine-protein kinase JAK1 (Homo sapiens, UniProt P23458); assay: Selectivity interaction (ActivX KiNativ screen (ex vivo kinase selectivity in human PBMCs)) EUB0001619a JAK1; type: cell-based; conditions: PBMC, at 1 µM
# Tyrosine-protein kinase JAK1, sequence (P23458 whole entry): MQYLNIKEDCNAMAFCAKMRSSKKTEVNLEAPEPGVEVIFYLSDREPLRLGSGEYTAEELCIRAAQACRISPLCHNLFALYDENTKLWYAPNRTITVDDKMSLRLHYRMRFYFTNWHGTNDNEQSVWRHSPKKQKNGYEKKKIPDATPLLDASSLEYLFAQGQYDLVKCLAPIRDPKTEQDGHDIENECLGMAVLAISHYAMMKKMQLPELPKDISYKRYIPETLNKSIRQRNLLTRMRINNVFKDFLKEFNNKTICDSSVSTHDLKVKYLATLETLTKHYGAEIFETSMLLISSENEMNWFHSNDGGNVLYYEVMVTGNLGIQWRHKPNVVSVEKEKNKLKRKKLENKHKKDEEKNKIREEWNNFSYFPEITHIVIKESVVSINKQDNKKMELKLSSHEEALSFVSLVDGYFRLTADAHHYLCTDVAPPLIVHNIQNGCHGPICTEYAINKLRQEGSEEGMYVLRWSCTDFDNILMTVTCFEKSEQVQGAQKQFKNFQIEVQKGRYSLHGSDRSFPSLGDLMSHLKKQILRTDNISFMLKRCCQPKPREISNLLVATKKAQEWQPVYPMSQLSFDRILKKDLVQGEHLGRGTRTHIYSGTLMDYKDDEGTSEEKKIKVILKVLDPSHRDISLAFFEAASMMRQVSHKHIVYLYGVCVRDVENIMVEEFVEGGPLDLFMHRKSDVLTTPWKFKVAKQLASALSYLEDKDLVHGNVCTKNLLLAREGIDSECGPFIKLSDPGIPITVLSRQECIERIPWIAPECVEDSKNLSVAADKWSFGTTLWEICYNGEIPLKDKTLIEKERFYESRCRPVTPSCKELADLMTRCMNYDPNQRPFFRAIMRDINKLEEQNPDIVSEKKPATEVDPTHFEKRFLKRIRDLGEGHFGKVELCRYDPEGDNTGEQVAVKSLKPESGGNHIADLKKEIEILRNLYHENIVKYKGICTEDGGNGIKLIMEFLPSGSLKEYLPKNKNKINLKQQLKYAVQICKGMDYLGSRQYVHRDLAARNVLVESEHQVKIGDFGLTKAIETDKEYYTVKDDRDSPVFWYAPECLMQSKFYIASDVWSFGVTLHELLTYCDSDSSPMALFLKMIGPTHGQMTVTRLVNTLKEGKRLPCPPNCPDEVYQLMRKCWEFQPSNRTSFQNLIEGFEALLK
# Angiopoietin-1 receptor (Homo sapiens), sequence (Q02763 whole entry): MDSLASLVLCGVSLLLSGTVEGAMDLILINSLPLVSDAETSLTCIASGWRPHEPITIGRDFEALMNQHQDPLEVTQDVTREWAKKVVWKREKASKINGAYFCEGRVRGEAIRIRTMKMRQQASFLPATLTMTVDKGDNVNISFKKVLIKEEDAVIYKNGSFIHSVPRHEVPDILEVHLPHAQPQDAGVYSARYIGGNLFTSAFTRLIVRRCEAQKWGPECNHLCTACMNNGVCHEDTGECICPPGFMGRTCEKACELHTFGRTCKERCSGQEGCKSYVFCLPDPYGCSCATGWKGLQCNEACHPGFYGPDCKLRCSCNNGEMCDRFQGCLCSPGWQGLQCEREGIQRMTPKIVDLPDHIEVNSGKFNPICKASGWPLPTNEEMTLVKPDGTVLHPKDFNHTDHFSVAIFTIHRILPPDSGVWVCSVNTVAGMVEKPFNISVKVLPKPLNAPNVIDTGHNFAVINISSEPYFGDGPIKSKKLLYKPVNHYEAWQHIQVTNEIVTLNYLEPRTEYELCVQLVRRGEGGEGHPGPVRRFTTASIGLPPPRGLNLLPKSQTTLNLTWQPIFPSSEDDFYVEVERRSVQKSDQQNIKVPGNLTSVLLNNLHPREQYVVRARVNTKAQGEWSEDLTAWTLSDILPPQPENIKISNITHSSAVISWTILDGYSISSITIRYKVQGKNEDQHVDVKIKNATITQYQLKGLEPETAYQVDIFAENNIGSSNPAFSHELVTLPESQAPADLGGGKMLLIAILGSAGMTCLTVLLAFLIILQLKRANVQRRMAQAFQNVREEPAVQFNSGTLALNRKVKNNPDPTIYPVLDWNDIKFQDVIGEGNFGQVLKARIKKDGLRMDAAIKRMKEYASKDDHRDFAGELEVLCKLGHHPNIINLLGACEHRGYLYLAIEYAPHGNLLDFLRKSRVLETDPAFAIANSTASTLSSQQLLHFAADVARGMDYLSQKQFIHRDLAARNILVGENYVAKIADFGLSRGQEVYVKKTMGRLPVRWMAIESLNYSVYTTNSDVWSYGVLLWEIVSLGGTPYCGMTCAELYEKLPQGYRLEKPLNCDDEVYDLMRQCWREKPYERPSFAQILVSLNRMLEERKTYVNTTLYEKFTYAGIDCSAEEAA
# Tyrosine-protein kinase Srms (Homo sapiens), sequence (Q9H3Y6 whole entry): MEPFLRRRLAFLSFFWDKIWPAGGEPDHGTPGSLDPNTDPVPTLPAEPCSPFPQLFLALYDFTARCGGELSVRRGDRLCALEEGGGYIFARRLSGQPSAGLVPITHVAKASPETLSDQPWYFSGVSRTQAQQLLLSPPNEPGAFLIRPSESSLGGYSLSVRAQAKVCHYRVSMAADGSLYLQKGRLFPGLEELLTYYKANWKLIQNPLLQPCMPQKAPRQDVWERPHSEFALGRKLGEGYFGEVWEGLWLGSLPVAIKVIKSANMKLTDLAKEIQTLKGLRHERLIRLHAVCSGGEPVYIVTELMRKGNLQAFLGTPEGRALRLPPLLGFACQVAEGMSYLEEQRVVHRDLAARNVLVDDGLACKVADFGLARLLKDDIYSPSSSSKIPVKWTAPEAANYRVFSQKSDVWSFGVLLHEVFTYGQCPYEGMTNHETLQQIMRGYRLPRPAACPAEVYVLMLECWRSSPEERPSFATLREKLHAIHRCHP
# Mitogen-activated protein kinase 3, sequence (P27361 whole entry): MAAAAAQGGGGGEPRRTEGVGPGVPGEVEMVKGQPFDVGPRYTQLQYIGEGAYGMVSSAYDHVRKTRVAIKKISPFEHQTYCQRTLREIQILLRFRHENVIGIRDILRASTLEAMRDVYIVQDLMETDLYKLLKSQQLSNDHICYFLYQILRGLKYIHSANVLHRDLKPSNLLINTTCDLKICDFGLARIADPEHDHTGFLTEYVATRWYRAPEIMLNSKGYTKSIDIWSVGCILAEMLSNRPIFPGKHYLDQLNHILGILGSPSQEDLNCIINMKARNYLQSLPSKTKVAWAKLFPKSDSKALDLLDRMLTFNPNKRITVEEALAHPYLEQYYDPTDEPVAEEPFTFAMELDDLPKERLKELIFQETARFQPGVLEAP
# Proto-oncogene tyrosine-protein kinase receptor Ret (Homo sapiens), P07949 [M918T], sequence (P07949 whole entry M918T, the tested form may be a part): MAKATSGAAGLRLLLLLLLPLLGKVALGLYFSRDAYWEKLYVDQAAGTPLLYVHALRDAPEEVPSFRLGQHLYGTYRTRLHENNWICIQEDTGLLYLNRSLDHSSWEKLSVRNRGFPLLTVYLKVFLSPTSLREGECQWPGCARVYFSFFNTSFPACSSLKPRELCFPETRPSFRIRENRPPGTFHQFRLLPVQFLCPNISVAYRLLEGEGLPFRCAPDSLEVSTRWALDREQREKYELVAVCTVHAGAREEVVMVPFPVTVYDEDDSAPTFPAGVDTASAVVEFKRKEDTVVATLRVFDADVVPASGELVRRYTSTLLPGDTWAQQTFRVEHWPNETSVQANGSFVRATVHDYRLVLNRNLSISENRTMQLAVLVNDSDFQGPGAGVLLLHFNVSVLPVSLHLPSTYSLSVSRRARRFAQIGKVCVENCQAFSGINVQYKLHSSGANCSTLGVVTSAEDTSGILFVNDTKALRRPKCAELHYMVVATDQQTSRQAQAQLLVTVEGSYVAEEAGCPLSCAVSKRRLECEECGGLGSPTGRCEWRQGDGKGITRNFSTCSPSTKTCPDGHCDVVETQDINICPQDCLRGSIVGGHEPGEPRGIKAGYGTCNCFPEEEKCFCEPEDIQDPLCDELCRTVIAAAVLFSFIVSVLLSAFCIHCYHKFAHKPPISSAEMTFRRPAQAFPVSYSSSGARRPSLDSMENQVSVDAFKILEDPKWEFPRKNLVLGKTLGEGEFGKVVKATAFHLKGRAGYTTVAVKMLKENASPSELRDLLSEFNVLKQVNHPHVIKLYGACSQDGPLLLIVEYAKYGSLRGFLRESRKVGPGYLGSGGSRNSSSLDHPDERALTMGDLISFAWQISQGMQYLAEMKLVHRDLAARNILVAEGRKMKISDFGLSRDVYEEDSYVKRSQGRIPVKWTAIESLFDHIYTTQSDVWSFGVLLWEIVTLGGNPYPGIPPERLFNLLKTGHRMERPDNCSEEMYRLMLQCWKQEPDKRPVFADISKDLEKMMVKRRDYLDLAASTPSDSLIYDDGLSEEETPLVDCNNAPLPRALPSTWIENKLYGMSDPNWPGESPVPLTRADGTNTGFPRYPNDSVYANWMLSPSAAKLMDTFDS
# Cyclin-dependent kinase 5/CDK5 activator 1, sequence (Q00535 whole entry): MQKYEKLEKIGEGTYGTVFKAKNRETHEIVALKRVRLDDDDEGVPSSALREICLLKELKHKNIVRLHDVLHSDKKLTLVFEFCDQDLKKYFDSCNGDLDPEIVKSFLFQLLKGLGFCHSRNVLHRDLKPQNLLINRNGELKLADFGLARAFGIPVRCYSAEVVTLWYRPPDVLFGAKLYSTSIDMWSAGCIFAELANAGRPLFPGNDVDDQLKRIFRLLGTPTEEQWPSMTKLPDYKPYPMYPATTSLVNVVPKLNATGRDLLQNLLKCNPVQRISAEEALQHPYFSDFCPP
# Cyclin-dependent kinase 5/CDK5 activator 1, sequence (Q15078 whole entry, further chain): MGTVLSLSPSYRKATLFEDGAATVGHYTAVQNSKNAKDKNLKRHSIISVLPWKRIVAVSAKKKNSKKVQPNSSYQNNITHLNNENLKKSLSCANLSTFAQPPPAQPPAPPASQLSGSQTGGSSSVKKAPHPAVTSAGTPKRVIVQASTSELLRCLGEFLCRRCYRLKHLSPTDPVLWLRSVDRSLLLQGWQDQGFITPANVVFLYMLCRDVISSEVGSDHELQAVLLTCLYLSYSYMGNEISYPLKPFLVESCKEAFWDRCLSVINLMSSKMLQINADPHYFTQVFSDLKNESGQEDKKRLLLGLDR
smiles,measurement,setting,value
CN(C)CCOc1ccc(-c2nc(-c3ccncc3)c(-c3ccc4c(c3)CC/C4=N\O)[nH]2)cc1,% of control,[1],63%
Nc1cnc(N2CCc3cc(S(=O)(=O)Nc4c(F)cc(Cl)cc4F)cc(N4CCCC4=O)c32)nc1 [TP-020n],% of control,[2],99%
Cc1cc([C@@H](C)Nc2ccccc2C(=O)O)c2nc(N3CCOCC3)cc(=O)n2c1 [AZD-6482],% of control,[3],95%
CCc1cccc(CC)c1NC(=O)c1nn(C)c2c1CCc1cnc(Nc3ccc(C(=O)NC4CCN(C)CC4)cc3OC(F)(F)F)nc1-2,IC50,[4],> 10 µM
CNC(=O)Nc1ccc(-c2nc(N3CC4CCC(C3)O4)c3cnn(C4CCC5(CC4)OCCO5)c3n2)cc1,% of inhibition,[5],10%
same,% of control,[6],97%
COc1cc(Nc2nc(C)cc(-c3cnn4nc(OC)ccc34)n2)cc(C(F)(F)F)c1,% of control,[7],95%
same,% of control,[8],78%
same,% of control,[9],100%
same,% of control,[10],98%
Cc1cc(F)c(C(=O)Nc2cccc(-c3nncn3C(C)C)n2)cc1-n1cnc(C2CC2)c1,% of control,[11],87%
C=CC(=O)Nc1cc(-n2c(=O)ccc3cnc4ccc(-c5ccc(NS(C)(=O)=O)cc5)cc4c32)ccc1C,% of control,[12]; at 1 µM,100%
same,% of control,[12]; at 10 µM,8.7%
N#Cc1cccc(-c2c[nH]c3ncnc(N4CCOCC4)c23)c1,% of inhibition,[13],-4%
